Laboratory results as given in ChEMBL document CHEMBL4376834, “Discovery of 4H-Chromen-4-one Derivatives as a New Class of Selective Rho Kinase (ROCK) Inhibitors, which Showed Potent Activity in ex Vivo Diabetic Retinopathy Models” (J Med Chem, 2019).

Key:
[1] = biological target: Serine/threonine-protein kinase D2 (Homo sapiens, UniProt Q9BZL6); test: Inhibition of recombinant full-length human PKD2 using KKLNRTLSVA as substrate incubated for 40 mins in presence of [gamma33P]ATP by radiometric scintillation counting analysis
[2] = biological target: Serine/threonine-protein kinase Sgk1 (Homo sapiens, UniProt O00141, S422D); test: Inhibition of recombinant human SGK S422D mutant (60 to end residues) using GRPRTSSFAEGKK as substrate incubated for 40 mins in presence of [gamma33P]ATP by radiometric scintillation counting analysis
Tau-tubulin kinase 2 = Tau-tubulin kinase 2 (Homo sapiens, UniProt Q6IQ55); test: Inhibition of recombinant human TTBK2 (1 to331 residues) using casein as substrate incubated for 40 mins in presence of [gamma33P]ATP by radiometric scintillation counting analysis
[3] = biological target: Ribosomal protein S6 kinase alpha-5 (Homo sapiens, UniProt O75582); test: Inhibition of recombinant human MSK1 (2 to end residues) using GRPRTSSFAEGKK as substrate incubated for 40 mins in presence of [gamma-33ATP by radiometric scintillation counting analysis
[4] = biological target: Interferon-induced, double-stranded RNA-activated protein kinase (Homo sapiens, UniProt P19525); test: Inhibition of recombinant human PKR (252 to end residues) using RSRSRSRSRSRSRS as substrate incubated for 40 mins in presence of [gamma33P]ATP by radiometric scintillation counting analysis
[5] = biological target: Platelet-derived growth factor receptor alpha (Homo sapiens, UniProt P16234, V561D); test: Inhibition of human PDGFRalpha V561D mutant (550 to end residues) using GGMEDIYFEFMGG as substrate measured after 40 mins in presence of [gamma33P]ATP by radiometric scintillation counting analysis
[6] = biological target: Serine/threonine-protein kinase N2 (Homo sapiens, UniProt Q16513); test: Inhibition of recombinant human PRK2 (501 to end residues) using AKRRRLSSLRA as substrate incubated for 40 mins in presence of [gamma33P]ATP by radiometric scintillation counting analysis
[7] = biological target: Insulin receptor-related protein (Homo sapiens, UniProt P14616); test: Inhibition of human recombinant IRR (943 to 1266 residues) using myelin basic protein as substrate after 40 mins by [gamma-33ATP] by radiometric scintillation counting analysis
[8] = biological target: Serine/threonine-protein kinase mTOR (Homo sapiens, UniProt P42345); test: Inhibition of recombinant full length human mTOR measured after 40 mins in presence of [gamma33P]ATP by radiometric scintillation counting analysis
[9] = biological target: Insulin-like growth factor 1 receptor (Homo sapiens, UniProt P08069); test: Inhibition of human recombinant IGF1R (959 to end residues) using KKKSPGEYVNIEF as substrate after 40 mins by [gamma-33ATP] by radiometric scintillation counting analysis
[10] = biological target: Inhibitor of nuclear factor kappa-B kinase subunit epsilon (Homo sapiens, UniProt Q14164); test: Inhibition of recombinant full length human IKKepsilon using casein as substrate after 40 mins by [gamma-33ATP] by radiometric scintillation counting analysis
SRSF protein kinase 1 = SRSF protein kinase 1 (Homo sapiens, UniProt Q96SB4); test: Inhibition of recombinant human SRPK1 (2 to end residues) using RSRSRSRSRSRSRSR as substrate incubated for 40 mins in presence of [gamma33P]ATP by radiometric scintillation counting analysis
Aurora kinase C = Aurora kinase C (Homo sapiens, UniProt Q9UQB9); test: Inhibition of human recombinant AURORA-C (35 to end residues) using AKRRRLSSLRA as substrate incubated for 40 mins in presence of [gamma-33ATP] by radiometric scintillation counting analysis
[11] = biological target: Protein kinase C beta type (Homo sapiens, UniProt P05771); test: Inhibition of recombinant human PKCbeta1 (2 to end residues) using histone H1 as substrate incubated for 40 mins in presence of [gamma33P]ATP by radiometric scintillation counting analysis
[12] = biological target: Tyrosine-protein kinase TXK (Homo sapiens, UniProt P42681); test: Inhibition of recombinant human Txk (256 to end residues) using GEEPLYWSFPAKK as substrate incubated for 40 mins in presence of [gamma33P]ATP by radiometric scintillation counting analysis
[13] = biological target: Ribosomal protein S6 kinase alpha-6 (Homo sapiens, UniProt Q9UK32); test: Inhibition of recombinant full length human Rsk4 using LRRASLG as substrate incubated for 40 mins in presence of [gamma33P]ATP by radiometric scintillation counting analysis
[14] = biological target: Serine/threonine-protein kinase MAK (Homo sapiens, UniProt P20794); test: Inhibition of recombinant human MAK using RRRFRPASPLRGP as substrate after 120 mins in presence of [gamma-33ATP] by radiometric scintillation counting analysis
[15] = biological target: Phosphatidylinositol 4-phosphate 3-kinase C2 domain-containing subunit alpha (Homo sapiens, UniProt O00443); test: Inhibition of human PI3KC2
[16] = biological target: Tyrosine-protein kinase Lck (Homo sapiens, UniProt P06239); test: Inhibition of recombinant full length human LCK using […] as substrate after 40 mins in presence of [gamma-33ATP] by radiometric scintillation counting analysis
[17] = biological target: Calcium/calmodulin-dependent protein kinase type 1 (Homo sapiens, UniProt Q14012); test: Inhibition of recombinant human CaMK1alpha (2 to end residues) using calmodulin as substrate incubated for 40 mins in presence of [gamma-33ATP] by radiometric scintillation counting analysis
[18] = biological target: BDNF/NT-3 growth factors receptor (Homo sapiens, UniProt Q16620); test: Inhibition of recombinant human TRKB (455 to end residues) using poly(Glu, Tyr) 4:1 as substrate incubated for 40 mins in presence of [gamma33P]ATP by radiometric scintillation counting analysis
[19] = biological target: Epidermal growth factor receptor (Homo sapiens, UniProt P00533, L861Q); test: Inhibition of recombinant human EGFR L861Q mutant (696 to end residues) using poly(Glu, Tyr) 4:1 as substrate after 40 mins in presence of [gamma-33ATP] by radiometric scintillation counting analysis
[20] = Inhibition of recombinant full-length human ATR/ATRIP M211T mutant using GST-cMyc-p53 as substrate incubated for 40 mins by fluorescence assay
[21] = biological target: Hepatocyte growth factor receptor (Homo sapiens, UniProt P08581, M1250T); test: Inhibition of recombinant human MET A1209G/V1290L/M1268T triple mutant (974 to end residues) using KKKGQEEEYVFIE as substrate incubated for 40 mins in presence of [gamma-33ATP by radiometric scintillation counting analysis
[22] = biological target: Mitogen-activated protein kinase kinase kinase 20 (Homo sapiens, UniProt Q9NYL2); test: Inhibition of recombinant full-length human ZAK using MBP as substrate incubated for 40 mins in presence of [gamma33P]ATP by radiometric scintillation counting analysis
[23] = biological target: Platelet-derived growth factor receptor alpha (Homo sapiens, UniProt P16234); test: Inhibition of human PDGFRalpha (550 to end residues) using poly(Glu, Tyr) 4:1 as substrate measured after 40 mins in presence of [gamma33P]ATP by radiometric scintillation counting analysis

Measured: IC50

Chain of Ribosomal protein S6 kinase alpha-6 (Q9UK32 whole entry): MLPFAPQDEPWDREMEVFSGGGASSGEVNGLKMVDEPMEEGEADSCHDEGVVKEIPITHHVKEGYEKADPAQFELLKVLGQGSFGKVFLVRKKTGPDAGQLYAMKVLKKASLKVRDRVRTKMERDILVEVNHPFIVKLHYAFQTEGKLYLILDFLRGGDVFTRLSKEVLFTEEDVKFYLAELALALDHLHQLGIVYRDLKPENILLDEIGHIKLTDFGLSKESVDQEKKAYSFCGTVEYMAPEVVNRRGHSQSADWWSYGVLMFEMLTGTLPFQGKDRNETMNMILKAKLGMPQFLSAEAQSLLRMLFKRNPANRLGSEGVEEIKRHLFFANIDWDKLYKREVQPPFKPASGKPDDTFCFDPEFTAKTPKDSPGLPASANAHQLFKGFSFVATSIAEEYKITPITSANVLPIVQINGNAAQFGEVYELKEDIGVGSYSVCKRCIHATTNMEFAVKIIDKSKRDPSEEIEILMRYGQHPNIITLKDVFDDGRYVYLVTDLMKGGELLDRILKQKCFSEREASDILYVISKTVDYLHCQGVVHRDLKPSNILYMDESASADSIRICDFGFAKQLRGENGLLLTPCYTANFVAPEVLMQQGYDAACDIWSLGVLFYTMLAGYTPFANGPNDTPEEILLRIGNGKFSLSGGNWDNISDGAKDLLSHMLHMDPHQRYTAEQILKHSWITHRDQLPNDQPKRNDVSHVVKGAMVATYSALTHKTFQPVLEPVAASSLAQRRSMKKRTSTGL
Chain of Serine/threonine-protein kinase N2 (Q16513 whole entry, the tested form may be a part): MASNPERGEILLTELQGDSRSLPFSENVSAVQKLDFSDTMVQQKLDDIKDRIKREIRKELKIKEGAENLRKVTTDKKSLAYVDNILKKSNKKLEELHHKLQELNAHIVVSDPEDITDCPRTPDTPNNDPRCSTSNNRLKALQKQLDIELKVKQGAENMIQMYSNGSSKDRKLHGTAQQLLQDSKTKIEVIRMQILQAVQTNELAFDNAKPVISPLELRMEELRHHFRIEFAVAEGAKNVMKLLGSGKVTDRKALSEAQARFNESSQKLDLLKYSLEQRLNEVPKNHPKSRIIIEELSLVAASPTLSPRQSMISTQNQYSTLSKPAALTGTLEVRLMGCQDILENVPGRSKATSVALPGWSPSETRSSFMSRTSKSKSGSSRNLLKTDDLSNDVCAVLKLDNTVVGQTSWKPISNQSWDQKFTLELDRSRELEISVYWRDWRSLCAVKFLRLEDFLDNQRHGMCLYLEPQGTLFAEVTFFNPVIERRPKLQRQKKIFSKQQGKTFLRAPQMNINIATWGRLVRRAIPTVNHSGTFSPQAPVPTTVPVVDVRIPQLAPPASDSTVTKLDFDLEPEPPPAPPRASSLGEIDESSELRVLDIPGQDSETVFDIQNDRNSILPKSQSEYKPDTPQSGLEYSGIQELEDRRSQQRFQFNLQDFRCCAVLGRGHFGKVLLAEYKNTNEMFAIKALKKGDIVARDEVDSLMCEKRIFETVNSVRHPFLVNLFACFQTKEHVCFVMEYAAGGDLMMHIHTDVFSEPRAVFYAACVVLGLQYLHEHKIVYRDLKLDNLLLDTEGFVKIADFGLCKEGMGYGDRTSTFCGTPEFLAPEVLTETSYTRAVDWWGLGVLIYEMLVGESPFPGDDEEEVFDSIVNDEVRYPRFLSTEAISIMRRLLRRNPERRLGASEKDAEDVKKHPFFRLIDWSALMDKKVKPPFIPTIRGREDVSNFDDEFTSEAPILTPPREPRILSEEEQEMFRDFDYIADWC
Chain of BDNF/NT-3 growth factors receptor (Q16620 whole entry): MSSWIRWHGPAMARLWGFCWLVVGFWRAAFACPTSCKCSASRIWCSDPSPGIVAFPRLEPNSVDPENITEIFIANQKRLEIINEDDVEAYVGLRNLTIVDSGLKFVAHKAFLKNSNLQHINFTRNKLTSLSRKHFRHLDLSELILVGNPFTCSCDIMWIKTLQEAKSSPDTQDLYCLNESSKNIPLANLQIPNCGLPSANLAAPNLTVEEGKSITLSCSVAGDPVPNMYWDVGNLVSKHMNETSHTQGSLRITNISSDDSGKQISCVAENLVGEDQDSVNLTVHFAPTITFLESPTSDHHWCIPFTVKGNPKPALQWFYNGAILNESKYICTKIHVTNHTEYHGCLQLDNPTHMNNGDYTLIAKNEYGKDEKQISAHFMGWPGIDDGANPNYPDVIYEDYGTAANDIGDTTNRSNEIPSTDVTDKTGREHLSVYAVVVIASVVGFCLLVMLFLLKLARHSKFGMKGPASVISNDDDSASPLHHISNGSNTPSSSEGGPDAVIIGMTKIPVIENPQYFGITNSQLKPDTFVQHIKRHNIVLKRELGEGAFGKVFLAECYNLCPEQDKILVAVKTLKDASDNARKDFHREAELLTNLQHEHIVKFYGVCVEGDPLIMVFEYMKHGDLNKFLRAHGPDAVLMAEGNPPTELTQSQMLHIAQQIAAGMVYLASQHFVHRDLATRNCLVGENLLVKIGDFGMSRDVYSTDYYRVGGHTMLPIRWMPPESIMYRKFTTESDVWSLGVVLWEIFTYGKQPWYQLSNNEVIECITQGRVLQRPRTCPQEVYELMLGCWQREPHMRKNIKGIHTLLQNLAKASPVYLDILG
Chain of Calcium/calmodulin-dependent protein kinase type 1 (Q14012 whole entry): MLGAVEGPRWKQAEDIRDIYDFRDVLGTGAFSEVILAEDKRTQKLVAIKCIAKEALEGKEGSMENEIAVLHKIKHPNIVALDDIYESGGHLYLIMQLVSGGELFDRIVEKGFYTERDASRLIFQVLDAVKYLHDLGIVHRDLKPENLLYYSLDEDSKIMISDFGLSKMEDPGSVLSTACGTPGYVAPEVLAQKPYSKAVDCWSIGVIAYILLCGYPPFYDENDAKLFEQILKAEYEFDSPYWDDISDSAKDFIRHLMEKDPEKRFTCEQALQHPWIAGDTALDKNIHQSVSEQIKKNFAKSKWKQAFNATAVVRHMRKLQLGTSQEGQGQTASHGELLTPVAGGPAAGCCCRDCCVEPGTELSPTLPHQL
Chain of Hepatocyte growth factor receptor (P08581 25-1390 M1250T limits assumed): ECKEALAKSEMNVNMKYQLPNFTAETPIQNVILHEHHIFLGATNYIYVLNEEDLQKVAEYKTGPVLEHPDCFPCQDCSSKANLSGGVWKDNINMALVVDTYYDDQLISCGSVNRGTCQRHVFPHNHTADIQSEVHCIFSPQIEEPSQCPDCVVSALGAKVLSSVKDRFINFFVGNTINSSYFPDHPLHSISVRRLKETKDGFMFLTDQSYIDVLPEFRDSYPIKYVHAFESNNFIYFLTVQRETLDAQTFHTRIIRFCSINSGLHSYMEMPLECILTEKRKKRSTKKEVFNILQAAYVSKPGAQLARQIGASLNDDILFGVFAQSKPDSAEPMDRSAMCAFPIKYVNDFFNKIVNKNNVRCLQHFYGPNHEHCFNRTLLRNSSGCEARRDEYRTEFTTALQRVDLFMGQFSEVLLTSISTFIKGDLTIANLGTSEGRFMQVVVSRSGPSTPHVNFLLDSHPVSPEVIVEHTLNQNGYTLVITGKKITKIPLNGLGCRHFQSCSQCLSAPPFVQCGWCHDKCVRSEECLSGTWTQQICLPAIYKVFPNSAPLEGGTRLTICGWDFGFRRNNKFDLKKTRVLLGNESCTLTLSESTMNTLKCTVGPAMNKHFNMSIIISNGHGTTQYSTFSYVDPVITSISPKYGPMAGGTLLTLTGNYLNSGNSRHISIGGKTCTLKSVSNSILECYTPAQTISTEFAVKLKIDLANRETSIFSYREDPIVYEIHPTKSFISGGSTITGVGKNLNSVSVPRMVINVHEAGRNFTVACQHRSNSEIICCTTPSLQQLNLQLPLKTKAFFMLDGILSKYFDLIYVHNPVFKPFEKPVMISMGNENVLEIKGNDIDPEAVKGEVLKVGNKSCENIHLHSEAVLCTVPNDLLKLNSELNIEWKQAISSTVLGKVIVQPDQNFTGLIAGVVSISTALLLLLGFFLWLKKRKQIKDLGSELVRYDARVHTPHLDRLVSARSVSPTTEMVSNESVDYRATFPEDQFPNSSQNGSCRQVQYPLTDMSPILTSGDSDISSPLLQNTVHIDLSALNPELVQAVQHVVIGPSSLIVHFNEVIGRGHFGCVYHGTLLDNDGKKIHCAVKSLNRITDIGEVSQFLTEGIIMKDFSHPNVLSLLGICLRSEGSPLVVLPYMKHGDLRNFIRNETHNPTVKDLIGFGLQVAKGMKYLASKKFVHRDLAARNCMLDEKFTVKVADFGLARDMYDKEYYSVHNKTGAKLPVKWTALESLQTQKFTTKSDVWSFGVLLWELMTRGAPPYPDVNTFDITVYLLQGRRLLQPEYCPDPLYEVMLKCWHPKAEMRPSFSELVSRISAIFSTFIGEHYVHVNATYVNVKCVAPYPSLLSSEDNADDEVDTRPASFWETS
Chain of Aurora kinase C (Q9UQB9 whole entry): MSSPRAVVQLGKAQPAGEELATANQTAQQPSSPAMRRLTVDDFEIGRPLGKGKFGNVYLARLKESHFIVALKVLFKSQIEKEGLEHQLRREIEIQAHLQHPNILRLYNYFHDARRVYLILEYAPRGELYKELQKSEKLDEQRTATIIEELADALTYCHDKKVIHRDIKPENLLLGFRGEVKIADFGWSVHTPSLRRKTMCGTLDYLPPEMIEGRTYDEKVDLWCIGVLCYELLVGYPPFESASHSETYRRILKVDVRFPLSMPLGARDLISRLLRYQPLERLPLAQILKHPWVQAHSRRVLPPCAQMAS
Chain of Serine/threonine-protein kinase Sgk1 (O00141 whole entry S422D, the tested form may be a part): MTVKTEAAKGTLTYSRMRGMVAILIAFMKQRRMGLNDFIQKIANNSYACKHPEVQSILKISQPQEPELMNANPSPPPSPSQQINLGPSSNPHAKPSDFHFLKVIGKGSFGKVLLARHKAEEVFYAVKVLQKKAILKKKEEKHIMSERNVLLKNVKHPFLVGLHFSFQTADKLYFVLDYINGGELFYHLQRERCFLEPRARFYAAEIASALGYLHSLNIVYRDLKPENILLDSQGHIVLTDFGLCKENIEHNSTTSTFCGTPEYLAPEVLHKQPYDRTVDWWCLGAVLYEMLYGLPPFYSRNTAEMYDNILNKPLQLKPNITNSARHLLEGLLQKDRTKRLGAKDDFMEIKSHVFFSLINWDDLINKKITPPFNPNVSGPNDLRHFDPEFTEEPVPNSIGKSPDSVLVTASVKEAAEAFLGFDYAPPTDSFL

CN(C)c1ccc(C(=O)Nc2cccc(NC(=O)COc3ccc4c(=O)ccoc4c3)c2)cc1
> 10 µM: all assays above
